In patent US8106042B2 (priority 2008, dated 2012):

Biological target: α7-subtype of nicotinic receptors (Mus musculus, UniProt P49582)
Test: in vivo
Set-up: species or system mice
Settings: read-out: Inhibition of 3H-α-Bungarotoxine Binding EC50

Chain of α7-subtype of nicotinic receptors (P49582 23-502): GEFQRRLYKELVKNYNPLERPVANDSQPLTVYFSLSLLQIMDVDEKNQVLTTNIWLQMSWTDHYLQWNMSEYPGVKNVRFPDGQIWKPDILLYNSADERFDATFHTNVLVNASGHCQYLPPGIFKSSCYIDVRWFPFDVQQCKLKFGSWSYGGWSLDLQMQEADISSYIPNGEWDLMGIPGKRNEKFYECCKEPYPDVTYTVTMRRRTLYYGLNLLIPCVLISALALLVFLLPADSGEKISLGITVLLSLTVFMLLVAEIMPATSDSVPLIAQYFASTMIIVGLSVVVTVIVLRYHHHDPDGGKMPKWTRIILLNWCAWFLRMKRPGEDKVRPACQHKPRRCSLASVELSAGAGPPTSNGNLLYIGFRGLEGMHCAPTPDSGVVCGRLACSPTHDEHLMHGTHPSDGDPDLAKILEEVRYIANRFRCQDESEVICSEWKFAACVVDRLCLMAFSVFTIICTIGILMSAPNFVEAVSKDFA

Molecule `[O-][N+]12CCC(CC1)N(c1nnc(-c3ccc4c(c3)OCO4)o1)CC2` [Compound 1, 4-(5-Benzo[1,3]-dioxol-5-yl-[1,3,4]oxadiazol-2-yl)-1,4-diazabicyclo[3.2.2]-nonane-1-oxide] has an ED50 of 1.5 mg/kg.
